One assay has as its target T1, rat mAChR M4 (Rattus norvegicus, UniProt P08485).
T1 sequence (P08485 1-478): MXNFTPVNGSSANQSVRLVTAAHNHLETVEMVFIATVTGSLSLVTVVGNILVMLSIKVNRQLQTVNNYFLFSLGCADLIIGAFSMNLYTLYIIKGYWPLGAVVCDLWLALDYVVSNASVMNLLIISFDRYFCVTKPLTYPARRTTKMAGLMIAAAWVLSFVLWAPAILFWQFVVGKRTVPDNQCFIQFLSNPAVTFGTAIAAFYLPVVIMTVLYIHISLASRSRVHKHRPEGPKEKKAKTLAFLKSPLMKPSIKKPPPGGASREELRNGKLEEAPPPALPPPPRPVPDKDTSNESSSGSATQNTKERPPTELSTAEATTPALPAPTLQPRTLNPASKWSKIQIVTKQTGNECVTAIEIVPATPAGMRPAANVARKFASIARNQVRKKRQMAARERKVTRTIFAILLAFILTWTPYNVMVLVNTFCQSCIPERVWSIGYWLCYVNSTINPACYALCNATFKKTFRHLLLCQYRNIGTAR
Description: mAChR M4 cell-based functional assay (calcium flux), rat M4. Further details: Emax: dose or concentration left out as unconfirmed. The settings on record: for EC50: read-out: Rat M4 EC50, CHO-K1 rM4-Gqi5 cells, calcium flux, increase in EC20 acetylcholine response. A general note: A change in cytosolic calcium serves as a functional read-out for many receptors and channels.

Another assay addresses T2, human mAChR M4 (Homo sapiens, UniProt P08173).
T2 sequence (P08173 1-479): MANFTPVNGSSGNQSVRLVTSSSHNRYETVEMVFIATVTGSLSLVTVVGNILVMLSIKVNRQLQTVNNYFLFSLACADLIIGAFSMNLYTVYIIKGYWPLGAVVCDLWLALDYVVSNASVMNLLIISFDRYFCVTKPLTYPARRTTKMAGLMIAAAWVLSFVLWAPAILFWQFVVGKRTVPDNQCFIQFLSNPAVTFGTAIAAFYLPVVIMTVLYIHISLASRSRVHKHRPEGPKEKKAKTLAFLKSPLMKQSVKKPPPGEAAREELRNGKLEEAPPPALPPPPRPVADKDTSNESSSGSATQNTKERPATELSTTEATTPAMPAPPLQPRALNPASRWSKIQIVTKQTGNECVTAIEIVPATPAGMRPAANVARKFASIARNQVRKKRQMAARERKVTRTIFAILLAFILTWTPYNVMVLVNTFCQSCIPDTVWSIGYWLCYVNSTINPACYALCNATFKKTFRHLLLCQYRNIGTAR
Description: mAChR M4 cell-based functional assay (calcium flux), human M4. The following applies: for Emax: Human M4, % ACh maximum at 30 μM; for EC50: Human M4 EC50, CHO-K1 hM4-Gqi5 cells, calcium flux, increase in EC20 acetylcholine response.

Assay [1] relates to amphetamine-induced hyperlocomotion. Put plainly: amphetamine-induced hyperlocomotion in rats. It counts as in vivo, male Sprague-Dawley rats. The following applies: 10 mg/kg p.o.; rat; 1 mg/kg amphetamine s.c. On the procedure:
d-Amphetamine hemisulfate was obtained from Sigma (St. Louis, Mo.). Salt-correction was used to determine the correct amount of the d-amphetamine hemisulfate form in milligrams to add to sterile water in order to yield a […] solution, which would be dosed at 1 mL/kg body weight of each animal. […] The solutions were formulated so that animals were injected with a volume equal to 10 mL/kg body weight for all compounds. The appropriate amount according to the dosage was mixed in 10% Tween 80 (Sigma) in sterile water. The mixtures were then vortexed and stored in a 39° C. sonication bath for 1 hour, until in a microsuspension (except for the highest dose, which was a suspension).
Male Sprague-Dawley rats weighing 239-300 grams and averaging 265 g (Harlan, Inc., Indianapolis, Ind.) were used. They were housed in the animal care facility certified by the American Association for the Accreditation of Laboratory Animal Care (AALAC) under a 12-hour light/dark cycle (lights on: 6 a.m.; lights off: 6 p.m.) and had free access to food and water. The animals used in this experiment were food-deprived the evening before experimentation for oral dosing of compound/vehicle. The experimental protocols performed during the light cycle were approved by the Institutional Animals Care and Use Committee of Vanderbilt University and conformed to the guidelines established by the National Research Council Guide for the Care and Use of Laboratory Animals.
Male Harlan Sprague Dawley rats were habituated in Smart Open Field locomotor activity test chambers (Hamilton-Kinder, San Diego, Calif.) with 16×16 photo beams to automatically record locomotor activity. […] They were monitored for an additional 30 minutes and then injected subcutaneously with vehicle or 1 mg/kg amphetamine. Animals were then monitored for an additional 60 minutes, for a total of 120 minutes. Data were expressed as changes in ambulation defined as total number of beam breaks per 5 minute interval. Terminal brain and plasma samples were collected at the end of the study for pharmacokinetic analysis.
Behavioral data were analyzed using a two-way ANOVA with main effects of treatment and time. Post hoc analysis was performed using a Dunnett's t-test with all treatment groups compared to the VAMP group using GraphPad Prism V.5.04 (GraphPad Software, San Diego, Calif.). Data were graphed using GraphPad Prism V.5.04 (GraphPad Software, San Diego, Calif.). A probability of p<0.05 was taken as the level of statistical significance. In addition, the total number of beam breaks from the amphetamine administration (65 min) to the end of the study (120 min) was calculated and graphed. Percent Reversal was calculated as follows using Microsoft Excel: In each animal, total ambulation from t=65 to t=120 was summed. The mean of each sum was calculated in the VAMP group. Then, for each animal, Percent Reversal was calculated with the following formula: Percent Reversal=100−{[(total ambulation in each animal from t=65 to t=120)/(mean of each sum from t=65 to t=120 in VAMP group)]*100}. The mean Percent Reversal, as well as the standard error, was calculated for each dose group using GraphPad Prism V5.04.

In the case of `Cc1nnc2sc3c(N4CC5(COC5)C4)ncnc3c2c1C` [Compound 13, 6-(3,4-dimethylpyrimido [4′,5′:4,5]thieno[2,3-c]pyridazin-8-yl)-2-oxa-6-azaspiro[3.3]heptane], the Emax (in general, the maximal effect, on the per cent scale that the assay sets) on rat mAChR M4 is 86%; at human mAChR M4 it was 73%. For the same compound, the EC50 (as a rule, the midpoint of the concentration-response curve) is 231 nM on rat mAChR M4 and 123 nM on human mAChR M4.

For the compound `COCC1CN(c2ncnc3c2sc2nnc(C)c(C)c23)C1` [Compound 14, 8-(3-(methoxymethyl)azetidin-1-yl)-3,4-dimethylpyrimido [4′,5′:4,5]thieno[2,3-c] pyridazine], the Emax on rat mAChR M4 worked out at 75%; at human mAChR M4, 62%.

As for `Cc1cnc2sc3c(NC4CN(c5ncc(C(F)(F)F)cn5)C4)ncnc3c2c1` [Compound 17, 8-methyl-N-(1-(5-(trifluoromethyl)pyrimidin-2-yl)azetidin-3-yl)pyrido[3′,2′:4,5] thieno[3,2-d]pyrimidin-4-amine], on rat mAChR M4, the Emax was determined as 76% and the EC50 was found to be 424 nM. The Emax at human mAChR M4 was 32%.

With `Cc1cnc2sc3c(N4CCC4)ncnc3c2c1` [Compound 18, 4-(azetidin-1-yl)-8-methylpyrido[3′,2′:4,5] thieno[3,2-d]pyrimidine], on rat mAChR M4, the maximal response (Emax) came to 51% and the EC50 was 2500 nM. Moreover, the Emax on human mAChR M4 stood at 58%.

Turning to `Cc1cnc2sc3c(N4CC5(COC5)C4)ncnc3c2c1` [Compound 19, 6-(8-methylpyrido [3′,2′:4,5]thieno[3,2-d]pyrimidin-4-yl)-2-oxa-6-azaspiro[3.3]heptane], the Emax was determined as 54% at rat mAChR M4 and 36% on human mAChR M4. The half-maximal effective concentration (EC50) is 1150 nM on rat mAChR M4 and 456 nM on human mAChR M4.

Regarding `FC(F)(F)c1cnc(N2CC(Nc3ncnc4c3sc3nccnc34)C2)nc1` [Compound 20, N-(1-(5-(trifluoromethyl)pyrimidin-2-yl)azetidin-3-yl)pyrazino[2′,3′:4,5] thieno[3,2-d]pyrimidin-4-amine], on rat mAChR M4, the Emax amounted to 46% and the EC50 came to 2800 nM. Further, the EC50 at human mAChR M4 is > 10000 nM.

Consider `Cc1nnc2sc3c(N4CC(c5ccncc5)C4)ncnc3c2c1C` [Compound 24, 3,4-dimethyl-8-(3-(pyridin-4-yl)azetidin-1-yl)pyrimido[4′,5′:4,5] thieno[2,3-c]pyridazine], for which the Emax at rat mAChR M4 was found to be 40%; at human mAChR M4, 62%. At rat mAChR M4, the EC50 was found to be 185 nM.

As for `Cc1nnc2sc(C(=O)NCc3ccc(S(=O)(=O)C(F)(F)F)cc3)c(N)c2c1C` [VU0467154, reference compound], in assay [1], the “percent reversal of amphetamine-induced hyperlocomotion” value is given as 58.9%.

The record behind these values is patent publication US10239887B2, “Positive allosteric modulators of the muscarinic acetylcholine receptor M4” (Vanderbilt University, priority 2016, dated 2019).
